From patent US20070197522A1, “Dpp-iv inhibitors” (priority 2004, published 2007)
Counter-ions that a name gives are not always drawn. Like-named read-outs stand apart in the source and are kept apart here.

Molecular target: T1, DPP-IV (Homo sapiens, UniProt P27487)
T1 construct: Soluble human DPP-IV lacking the transmembrane anchor (Gly31-Pro766) was expressed in a recombinant YEAST-strain; Pre-Pro-alpha-mating factor leader (secretion fusion) (N, cleaved yes); made in house
Experiment: Inhibition of DPP-IV peptidase activity, continuous fluorimetric assay (Gly-Pro-AMC cleavage)
Assay type: biochemical, human and porcine
Conditions: 50 pM DPP-IV, 16 μM Gly-Pro-AMC, pH 7.4, 25° C., values grouped in 3 classes
Protocol: Inhibition of DPP-IV peptidase activity was monitored with a continuous fluorimetric assay. This assay is based on the cleavage of the substrate Gly-Pro-AMC (Bachem) by DPP-IV, releasing free AMC. The assay is carried out in 96-well microtiterplates. In a total volume of 100 μL, compounds are preincubated with 50 pM DPP-IV employing a buffer containing 10 mM Hepes, 150 mM NaCl, 0.005% Tween 20 (pH 7.4). […] The final concentration of DMSO is 1%. The inhibitory potential of the compounds were determined.
Soluble human DPP-IV lacking the transmembrane anchor (Gly31-Pro766) was expressed in a recombinant YEAST-strain as Pre-Pro-alpha-mating fusion. The secreted product (rhuDPP-IV-Gly31-Pro766) was purified from fermentation broth (>90% purity).

[1] = inhibition of DPP-IV peptidase activity, read-out: IC50

T1 sequence (P27487 31-766): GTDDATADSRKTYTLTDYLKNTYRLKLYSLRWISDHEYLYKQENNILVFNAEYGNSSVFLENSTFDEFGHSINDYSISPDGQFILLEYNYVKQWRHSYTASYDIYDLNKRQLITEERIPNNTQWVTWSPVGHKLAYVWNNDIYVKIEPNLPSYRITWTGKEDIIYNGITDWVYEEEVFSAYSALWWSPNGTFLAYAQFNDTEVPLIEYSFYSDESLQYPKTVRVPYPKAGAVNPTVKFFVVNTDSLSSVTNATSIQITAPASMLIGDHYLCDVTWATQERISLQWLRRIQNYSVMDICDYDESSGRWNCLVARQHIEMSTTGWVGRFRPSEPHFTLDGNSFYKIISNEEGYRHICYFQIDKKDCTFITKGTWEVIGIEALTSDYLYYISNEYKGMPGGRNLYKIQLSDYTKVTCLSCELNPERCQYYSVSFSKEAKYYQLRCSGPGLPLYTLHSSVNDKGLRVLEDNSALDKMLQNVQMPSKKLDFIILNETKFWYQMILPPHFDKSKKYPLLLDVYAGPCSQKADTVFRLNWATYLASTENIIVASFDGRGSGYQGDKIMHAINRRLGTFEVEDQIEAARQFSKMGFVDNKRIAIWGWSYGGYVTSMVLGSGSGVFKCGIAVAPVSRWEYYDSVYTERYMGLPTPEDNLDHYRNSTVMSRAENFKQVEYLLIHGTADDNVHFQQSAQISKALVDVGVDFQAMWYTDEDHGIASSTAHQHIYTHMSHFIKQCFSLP

Row | IC50 [1] [nM] | Structure (SMILES) | IC50 (IC50, inhibition of DPP-IV peptidase activity) [nM]
1 | 101 to 1000 | CN(C)C(CNC(=O)C[C@H](N)Cc1ccccc1F)c1ccccc1 (single isomer, unassigned) [Example 85] | 
2 | 101 to 1000 | N[C@@H](CC(=O)NCc1cc(F)c(F)c(F)c1)Cc1ccccc1F [Example 65] | 
3 | 101 to 1000 | CC(C)c1ccc(CNC(=O)C[C@H](N)Cc2ccccc2F)cc1 [Example 73] | 
4 | 101 to 1000 | N[C@@H](CC(=O)NCCc1ccccn1)Cc1ccccc1F [Example 40] | 
5 | 101 to 1000 | N[C@@H](CC(=O)NCCc1cccnc1)Cc1ccccc1F [Example 83] | 
6 | 101 to 1000 | N[C@@H](CC(=O)NCC(c1ccccc1)N1CCCC1)Cc1ccccc1F (single isomer, unassigned) [Example 131] | 
7 | 1000 to 2000 | CN(Cc1cn2ccccc2n1)C(=O)C[C@H](N)Cc1ccccc1F [Example 175] | 
8 | 101 to 1000 | N[C@@H](CC(=O)NCc1cccnc1)Cc1ccccc1F [Example 58] | 
9 | 1000 to 2000 | COc1cccc(C(C)NC(=O)CC(N)Cc2ccccc2F)c1 (centres unmarked) [Example 102] | 
10 | 101 to 1000 | N[C@@H](CC(=O)NC(CN1CCCC1)c1ccccc1)Cc1ccccc1F (single isomer, unassigned) [Example 91] | 
11 | 101 to 1000 | N[C@@H](CC(=O)NCC(c1cccc(Cl)c1)N1CCCC1)Cc1ccccc1F (some centres unmarked) [Example 172] | 
12 | 101 to 1000 | Cc1ccccc1-n1nc(C)c(CNC(=O)C[C@H](N)Cc2ccccc2F)c1C [Example 151] | 
13 | < 100 | CC(C)[C@H](NC(=O)C[C@H](N)Cc1cc(F)c(F)cc1F)c1nc(C2CC2)no1 [Example 29, (R)-3-Amino-N—[(S)-1-(3-cyclopropyl-[1,2,4]oxadiazol-5-yl)-2-methyl-propyl]-4-(2,4,5-trifluoro-phenyl)-butyramide. Formic Acid Salt] | 
14 | 101 to 1000 | N[C@@H](CC(=O)NCc1cccc(Cl)c1)Cc1ccccc1F [Example 70] | 
15 | 101 to 1000 | N[C@@H](CC(=O)NC1Cc2ccccc2C1)Cc1ccccc1F [Example 55] | 
16 | 101 to 1000 | N[C@@H](CC(=O)NCc1ccccn1)Cc1ccccc1F [Example 52] | 
17 | 101 to 1000 | Cc1noc(C)c1CCNC(=O)C[C@H](N)Cc1ccccc1F [Example 80] | 
18 | 1000 to 2000 | N[C@@H](CC(=O)NCc1cccc2cnccc12)Cc1ccccc1F [Example 116] | 
19 | 101 to 1000 | N[C@@H](CC(=O)NCC(c1cccc(Cl)c1)N1CCOCC1)Cc1ccccc1F (some centres unmarked) [Example 157] | 

Row | IC50 [1] [nM] | Structure (SMILES) | IC50 (IC50, inhibition of DPP-IV peptidase activity) [nM]
20 | 1000 to 2000 | COc1ccccc1CCNC(=O)C[C@H](N)Cc1ccccc1F [Example 97] | 
21 | 1000 to 2000 | NC(CC(=O)NC1CCc2ccccc21)Cc1ccccc1F (centres unmarked) [Example 120] | 
22 | 101 to 1000 | N[C@@H](CC(=O)NCC1OCCc2ccccc21)Cc1ccccc1F (single isomer, unassigned) [Example 67] | 
23 | 101 to 1000 | N[C@@H](CC(=O)NCCc1c(F)cccc1Cl)Cc1ccccc1F [Example 114] | 
24 | 101 to 1000 | N[C@@H](CC(=O)NCc1cc(Cl)ccc1-n1cncn1)Cc1ccccc1F [Example 164] | 
25 | < 100 | CN(CC(c1ccccc1Cl)N1CCCC1)C(=O)C[C@H](N)Cc1ccccc1F (some centres unmarked) [Example 178] | 
26 | 101 to 1000 | CN(Cc1cccc(C(F)(F)F)c1)S(=O)(=O)C[C@H](N)Cc1ccccc1F [Example 193, (R)-2-Amino-3-(2-fluoro-phenyl)-propane-1-sulphonic acid methyl-(3-trifluoromethyl-benzyl)-amide] | 
27 | 101 to 1000 | N[C@@H](CC(=O)NCc1ccc(C(F)(F)F)cc1)Cc1ccccc1F [Example 68] | 
28 | < 100 | NC(CC(=O)NCC(c1ccccc1Cl)N1CCCC1)Cc1ccccc1F (single isomer, unassigned) [Example 134] | 
29 | 101 to 1000 | N[C@@H](CC(=O)N(CCN1CCOCC1)Cc1cccnc1)Cc1ccccc1F [Example 155] | 
30 | 101 to 1000 | N[C@@H](CC(=O)NCc1ccc2c(c1)CCO2)Cc1ccccc1F [Example 56] | 
31 | 101 to 1000 | N[C@@H](CC(=O)NCCc1ccccc1F)Cc1ccccc1F [Example 113] | 
32 | 101 to 1000 | CN1CCN(CC(NC(=O)C[C@H](N)Cc2ccccc2F)c2ccccc2)CC1 (some centres unmarked) [Example 159] | 
33 |  | CN(C(=O)C[C@H](N)Cc1ccccc1F)[C@@H](CN1CCCC1)c1ccccc1 [Example 179, (R)-3-Amino-4-(2-fluoro-phenyl)-N-methyl-N-(1-phenyl-2-pyrrolidin-1-yl-ethyl)-butyramide Formic Acid] | 101 to 1000
34 | 101 to 1000 | CN1CCN(c2ccc(CNC(=O)C[C@H](N)Cc3ccccc3F)cc2)CC1 [Example 127] | 
35 | < 100 | N[C@@H](CC(=O)NCc1ccc(-n2cccn2)cc1)Cc1ccccc1F [Example 63] | 
36 | 101 to 1000 | N[C@@H](CC(=O)NCc1cccc(F)c1)Cc1ccccc1F [Example 118] | 
37 | 101 to 1000 | CCOc1ccccc1CCNC(=O)C[C@H](N)Cc1ccccc1F [Example 130] | 
38 | 1000 to 2000 | COc1ccc(CCNC(=O)C[C@H](N)Cc2ccccc2F)cc1 [Example 98] | 

Row | IC50 [1] [nM] | Structure (SMILES) | IC50 (IC50, inhibition of DPP-IV peptidase activity) [nM]
39 | 101 to 1000 | N[C@@H](CC(=O)NCc1ccc(Cl)cc1)Cc1ccccc1F [Example 54] | 
40 | 1000 to 2000 | COc1ccc([C@@H](C)NC(=O)C[C@H](N)Cc2ccccc2F)cc1 [Example 99] | 
41 | 101 to 1000 | NC(CC(=O)NC1CCCc2ccccc21)Cc1ccccc1F (centres unmarked) [Example 45] | 
42 | 101 to 1000 | N[C@@H](CC(=O)NCc1cccc(Oc2ccccc2)c1)Cc1ccccc1F [Example 77] | 
43 | 101 to 1000 | Cc1cc(CNC(=O)C[C@H](N)Cc2ccccc2F)no1 [Example 62] | 
44 | 101 to 1000 | NC(CC(=O)NCc1ccc(Oc2ccccc2)cc1)Cc1ccccc1F (centres unmarked) [Example 76] | 
45 | 101 to 1000 | CN(Cc1ccccc1Cl)C(=O)C[C@H](N)Cc1ccccc1F [Example 123] | 
46 | 101 to 1000 | CN(Cc1cccc(C(F)(F)F)c1)C(=O)C[C@H](N)Cc1ccccc1F [Example 124] | 
47 | 101 to 1000 | N[C@@H](CC(=O)NCc1cccc(C(=O)Nc2ccccn2)c1)Cc1ccccc1F [Example 34] | 
48 | 101 to 1000 | CSc1ccccc1CN(C)C(=O)C[C@H](N)Cc1ccccc1F [Example 38, 3-Amino-4-(2-fluoro-phenyl)-N-methyl-N-(2-methylsulfanyl-benzyl)-butyramide Hydrochloride] | 
49 | 101 to 1000 | NC(CC(=O)N(Cc1ccccc1F)C1CC1)Cc1ccccc1F (centres unmarked) [Example 144] | 
50 | 1000 to 2000 | NC(CC(=O)NC1c2ccccc2CC1O)Cc1ccccc1F (centres unmarked) [Example 43] | 
51 | 101 to 1000 | N[C@@H](CC(=O)NCCc1ccc(Cl)cc1)Cc1ccccc1F [Example 95] | 
52 | 101 to 1000 | N[C@@H](CC(=O)NC(Cc1ccccc1)c1ccccc1)Cc1ccccc1F (single isomer, unassigned) [Example 74] | 
53 | 101 to 1000 | N[C@@H](CC(=O)NCCc1ccc(Cl)c(Cl)c1)Cc1ccccc1F [Example 92] | 
54 | 101 to 1000 | N[C@@H](CC(=O)NCc1cccc(C(=O)NCc2ccccc2F)c1)Cc1ccccc1F [Example 33] | 
55 | 101 to 1000 | Cc1onc(-c2ccccc2)c1CNC(=O)C[C@H](N)Cc1ccccc1F [Example 149] | 
56 | 101 to 1000 | COc1ccc(-c2cc(CNC(=O)C[C@H](N)Cc3ccccc3F)on2)cc1 [Example 57] | 
